Reference: ChEMBL document CHEMBL4421717, “Antagonists and agonists of bitter taste receptors and uses thereof” (2012)

Tests used:
[1] = biological target: T1, Taste receptor type 2 member 46 (Homo sapiens, UniProt P59540); experiment: Antagonist activity at recombinant human N-terminal rat ST3 receptor-fused TAS2R46 expressed in HEK293T cells co-expressing Galpha16gust44 assessed as inhibition of 3 uM strychnine-induced intracellular calcium level by FLIPR assay; type: functional, cell-based
T1 sequence (P59540 whole entry): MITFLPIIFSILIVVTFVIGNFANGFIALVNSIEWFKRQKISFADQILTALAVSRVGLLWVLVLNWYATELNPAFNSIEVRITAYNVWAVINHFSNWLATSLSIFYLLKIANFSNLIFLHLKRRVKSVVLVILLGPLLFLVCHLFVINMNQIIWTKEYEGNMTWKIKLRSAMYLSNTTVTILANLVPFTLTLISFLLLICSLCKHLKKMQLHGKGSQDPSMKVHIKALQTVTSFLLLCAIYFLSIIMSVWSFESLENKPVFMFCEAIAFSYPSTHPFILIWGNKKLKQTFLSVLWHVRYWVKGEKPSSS

[2] = biological target: T1, Taste receptor type 2 member 46; experiment: Activity at recombinant human N-terminal rat ST3 receptor-fused TAS2R46 expressed in HEK293T cells co-expressing Galpha16gust44 assessed as activation of 3 uM strychnine-induced intracellular calcium level by FLIPR assay; type: functional, cell-based

| IC50 [1] | EC50 [2] | SMILES |
| --- | --- | --- |
| 97.8 µM | – | C/C1=C\CC(=O)/C(C)=C/[C@H]2OC(=O)[C@@H](C)C2CC1 (some centres undefined) |
| – | 8.6 µM | C=C1C(=O)O[C@@H]2/C=C(\C)CC/C=C(\C)CCC12 (some centres undefined) |
| – | 8.3 µM | C/C1=C\[C@H]2OC(=O)[C@@H](C)C2CC/C(C)=C/CC1 (some centres undefined) |
| – | 1.1 µM | CC(=O)O[C@H]1C/C=C(\C)CCC2[C@H](C)C(=O)O[C@@H]2/C=C/1C (some centres undefined) |
